Source: patent US20260216166A1, “COMPOUND FOR TREATMENT OF ERECTILE DYSFUNCTION” (Initiator Pharma A/S, priority 2023, published 2026)
Entries after “also recorded” stand apart in the source; their conditions may differ.

Columns and labels:
[1] = tested on: rat corpus cavernosum strips; assay: Isometric tension of isolated rat corpus cavernosum strips; conditions: baseline tension, clozapine 10^-6 M, SCH23390, L-NOARG 10^-4 M, sildenafil 10^-7 M
Description: For functional studies in corpus cavernosum strips, the penis was removed by cutting the crura corpora cavernosa at the point of adhesion to the lower pubic bone, and the corpora cavernosa were then dissected free. The penis was submerged immediately in ice-cold (4° C.) PSS. The tunica albuginea was carefully opened from its proximal extremity of the corpus cavernosum towards the penile shaft and the erectile tissue within the corpus cavernosum was microsurgically dissected free. Change in isometric tension of corpus cavernosum strips (0.5×0.5×3 mm) were investigated in a tissue organ bath system (750TOBS, Danish Myotechnology, Aarhus, Denmark). Silk ligatures were applied at both ends of the strip preparations, which were then suspended between two L-formed metal prongs in thermostatically controlled organ baths (5 ml, 37° C.) containing PSS aerated with a mixture of 5% CO2 in air (pH 7.4). The bath fluid was routinely changed every 20 min and replaced with fresh PSS, also kept at 37° C. During an equilibration period of 60 min, tension was adjusted until a mean stable tension of 1.2 mN was obtained, as described earlier.
To test the contractility of the preparations, they were exposed to a potassium physiological saline solution (KPSS) of 125 mM and phenylephrine (10^-6 M), after each contraction acetylcholine was administrated to check endothelium-dependent relaxations.
To investigate the effect of IP2015 on corpus cavernosum strips, the drug (10 9-3×10^-4 M) was administered either in preparations at baseline tension or contracted with phenylephrine (10^-6 M) in the absence or presence of L-NOARG (10 4 M), a NO synthase inhibitor, sildenafil (10^-7 M), a PDE5 inhibitor, a dopamine D1 receptor antagonist, SCH23390, and a dopamine D2 receptor antagonist, clozapine (10^-6 M). The effect of vehicle was also investigated.

anaesthetized rats = assay: Intracavernous pressure / spontaneous erections in anaesthetized rats; type: in vivo, rat; conditions: rats
Description: For in vivo erectile physiology studies, rats were anaesthetized with pentobarbital sodium (Sygehus Apoteket, Aarhus, Denmark; 50 mg/kg) given intraperitoneally. During the experiment, the rats breathed spontaneously; the body temperature was monitored continuously and was maintained at 37° C. With a midline incision in the perineum, the base of the penis, enclosed by striated muscles, was exposed. The ischiocavernous muscle covering the crus corpus cavernosum was divided on one side, and entrance to the underlying tunica albuginea was given. A 25-gauge needle attached to a heparinized (100 IE ml-1) polyethylene catheter was inserted into the crus corpus cavernosum to measure intracavernous pressure (ICP). A heparinized polyethylene catheter (PE 50) was introduced into the carotid artery to measure mean arterial pressure (MAP). Continuous direct measurements of MAP and ICP were performed with transducers (Disposable BP Transducer, ADInstruments, UK), and registered and analysed on a computerized data acquisition system (PowerLab, ADInstruments).
A stabilizing period of 20-30 min was allowed before registration of basal ICP and MAP. Through a lower abdominal incision, the cavernous nerve was isolated at the lateral aspect of the prostate, and electrical stimulation was performed with a slender bipolar platinum electrode, which was connected to a S48 stimulator (Grass Instrument Co., Boston, MA, U.S.A.). To measure the maximum amplitude of the erectile response, a first stimulation of the cavernous nerve (square wave pulses of 6 Volts, 10 Hz, 1 ms pulse duration for 30 s) was performed.
IP2015, sildenafil, clozapine or vehicle were administered by injection in the jugular vein in volumes of maximum 200 μl. […] The observation period of spontaneous erection after injection of IP2015 was 30 min. Clozapine (1 mg/kg) or sildenafil (1 mg/kg) were administered 30 or 10 min prior to 1 mg/kg IP2015 injection, respectively. One group was injected with vehicle alone.
To investigate the involvement of proximal neuronal pathways in the effect of IP2015, mechanical denervation was performed. For mechanical denervation the isolated cavernous nerve was cut distal to the major pelvic ganglion. Absence of erectile response to electrical stimulation verified the efficacy of mechanical denervation.

Structure (SMILES) | effect on IP2015 relaxation of corpus cavernosum strips [1] | effect on magnitude of erectile responses induced by IP2015 (0.1 mg/kg) (anaesthetized rats; sildenafil 1 mg/kg) | effect on IP2015-induced erectile responses (anaesthetized rats; sildenafil 1 mg/kg 10 min or clozapine 1 mg/kg 30 min prior to IP2015 i.v.) | effect on IP2015 relaxation of corpus cavernosum strips ([1]; listed as NG-nitro-L-arginine)
CCCc1nn(C)c2c(=O)[nH]c(-c3cc(S(=O)(=O)N4CCN(C)CC4)ccc3OCC)nc12 [sildenafil, reference compound] | enhanced relaxation to IP2015 | an effect on the magnitude of erectile responses | markedly increased the duration of these responses; also recorded: further enhanced the IP2015 mediated increase in intracavernosal pressure | 
N=C(NCCC[C@H](N)C(=O)O)N[N+](=O)[O-] [L-NOARG, N^G-nitro-L-arginine, reference compound] | abolished the relaxant effect of IP2015 |  |  | blunted
